{"source": "patent US5614620A", "about": "“DNA binding proteins including androgen receptor” (Arch Development Corporation, priority 1993, dated 1997)", "key": {"[1]": {"system": "AR mRNA", "test": "AR mRNA level in ventral prostate of castrated rats (RNA dot hybridization and Northern blot)", "type": "in vivo", "conditions": "5 mg/rat/day", "procedure": "(§1) Because rat ventral prostate is an androgen-sensitive organ and contains the greatest amount of AR and TR2 mRNA, the effect of androgen depletion and replacement on the mRNA levels was studied by RNA dot hybridization and Northern blot analysis. […] Urol., 10:123 (1972)], was injected into normal rats for from 2 to 6 days. TR2 mRNA levels were then measured by dot hybridization as described above."}, "[2]": {"system": "TR2 mRNA", "test": "TR2 mRNA level in rat ventral prostate (RNA dot hybridization and Northern blot)", "type": "in vivo", "procedure": "as §1"}, "[3]": {"system": "human androgen receptor", "conditions": "Govindan, et al.; cited from earlier work"}, "[4]": {"system": "ventral prostate", "conditions": "castrated rats; Neri, et al.; cited from earlier work"}, "[5]": {"molecular_target": "T1, 79 kD hAR protein (Homo sapiens, UniProt P10275)", "T1 construct": "T7 transcript translated in rabbit reticulocyte lysate; untagged", "T1 sequence (P10275 191-920)": "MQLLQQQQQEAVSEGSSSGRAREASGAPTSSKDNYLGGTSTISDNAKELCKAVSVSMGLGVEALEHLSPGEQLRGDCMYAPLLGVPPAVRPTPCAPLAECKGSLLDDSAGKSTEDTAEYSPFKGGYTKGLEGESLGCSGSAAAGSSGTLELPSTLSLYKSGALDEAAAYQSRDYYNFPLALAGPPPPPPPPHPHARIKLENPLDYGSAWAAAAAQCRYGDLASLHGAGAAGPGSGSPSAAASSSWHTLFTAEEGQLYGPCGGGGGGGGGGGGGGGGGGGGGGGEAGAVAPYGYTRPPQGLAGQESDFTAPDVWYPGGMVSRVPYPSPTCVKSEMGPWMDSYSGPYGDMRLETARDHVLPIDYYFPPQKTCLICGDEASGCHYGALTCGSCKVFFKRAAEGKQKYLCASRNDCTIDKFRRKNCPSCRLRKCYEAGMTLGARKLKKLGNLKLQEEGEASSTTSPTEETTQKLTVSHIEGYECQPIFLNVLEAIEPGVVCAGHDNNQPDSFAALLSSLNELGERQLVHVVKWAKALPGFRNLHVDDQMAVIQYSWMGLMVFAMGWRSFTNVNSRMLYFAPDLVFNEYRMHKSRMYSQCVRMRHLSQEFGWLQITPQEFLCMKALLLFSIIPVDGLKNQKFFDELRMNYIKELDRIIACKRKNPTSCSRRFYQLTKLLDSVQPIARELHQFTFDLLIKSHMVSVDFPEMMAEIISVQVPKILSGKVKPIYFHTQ", "test": "competition of non-radioactive steroids with [^3 H] R1881 binding to hAR made in reticulocyte lysate (hydroxylapatite-filter method)"}, "[6]": {"system": "AR", "conditions": "Liao, et al. (1973); cited from earlier work"}, "[7]": {"system": "hAR in NIH 3T3 cells", "conditions": "6 of about 100 individual cell lines", "source_text": "The expression of cloned AR-genes was achieved as follows in a eukaryotic system. NIH 3T3 cells, contact-inhibited cells established from NIH Swiss mouse embryo, were co-transfected with hAR cDNA inserted into pBPVMTH vectors as described by Gorman, \"DNA Cloning\", 2:143-190 D. M. Glover, ed.; (Oxford, Washington, D.C. 1985). Transfected cells were cloned and grown in multiple-well cell culture plates. About 100 individual cell lines were isolated."}, "[8]": {"molecular_target": "AR of rat ventral prostate", "conditions": "read-out: binding constant reported previously, Schilling, et al.; cited from earlier work"}}, "data": [{"compound": "C[C@]12CCC(=O)C[C@@H]1CC[C@@H]1[C@@H]2CC[C@]2(C)[C@@H](O)CC[C@@H]12", "note": "[5α-dihydrotestosterone, 17β-hydroxy-5α-androstan-3-one]", "values": [{"measurement": "AR mRNA level", "setting": "[1]", "result": "reduced the AR mRNA level to that of normal rats"}, {"measurement": "TR2 mRNA level", "setting": "[2]; castrated rats, injection, 5 mg/rat/day", "result": "reduced the TR2 mRNA to the levels of normal rats"}]}, {"compound": "C[C@]12CCC(=O)C[C@@H]1CC[C@@H]1[C@@H]2CC[C@]2(C)[C@@H](O)CC[C@@H]12", "note": "[DHT, dihydrotestosterone]", "values": [{"measurement": "binding of tritium-labelled DHT (in words)", "setting": "[3]", "result": "with high affinity and specificity"}]}, {"compound": "CC(C)C(=O)Nc1ccc([N+](=O)[O-])c(C(F)(F)F)c1", "note": "[Flutamide]", "values": [{"measurement": "effect on 5α-dihydrotestosterone action on ventral prostate weights", "setting": "[4]", "result": "antagonizes the effects of 5α-dihydrotestosterone on the ventral prostate weights in castrated rats"}, {"measurement": "TR2 mRNA level", "setting": "[2]; normal rats, injected for from 2 to 6 days", "result": "increased TR2 mRNA levels"}]}, {"compound": "C[C@]12CCC(=O)C=C1CC[C@@H]1[C@@H]2[C@@H](O)C[C@@]2(C)[C@H]1CC[C@]2(O)C(=O)CO", "note": "[Hydrocortisone]", "values": [{"measurement": "competition with [^3 H] R1881 binding (in words)", "setting": "[5]; 79 kD protein, reticulocyte lysate", "result": "did not compete well"}, {"measurement": "remaining activity at 0.05 µM", "setting": "[5]; read-out: [^3 H] R1881-bound (% of control)", "result": 90, "unit": "%"}]}, {"compound": "C[C@]1(O)CC[C@H]2[C@@H]3CCC4=CC(=O)CCC4=C3C=C[C@@]21C", "note": "[R1881, 17α-methyl-17β-hydroxy-estra-4,9,11-trien-3-one]", "values": [{"measurement": "[^3 H] R1881-bound (% of control)", "setting": "[5]; reticulocyte lysate har, 0.05 µM", "result": "10 % of control"}, {"measurement": "AR binding affinity (in words)", "setting": "[6]", "result": "binds AR with high affinity"}]}, {"compound": "C[C@]1(O)CC[C@H]2[C@@H]3CCC4=CC(=O)CCC4=C3C=C[C@@]21C", "note": "[[^3 H] R1881, 17α[^3 H]-methyl-17β-hydroxy-estra-4,9,11-trien-3-one]", "values": [{"measurement": "[^3 H] R1881-binding activity relative to cells transfected with pSV2 vector alone", "setting": "[7]", "result": "at least 4 fold"}, {"measurement": "Kd", "setting": "[8]", "result": 0.65, "unit": "nM"}]}]}
